# Assay results taken from ChEMBL document CHEMBL1143046, “Synthesis and bioassay evaluation of 1-(4-substitutedideneaminooxymethyl)-phenyl-3-(2,6-difluorobenzoyl)ureas” (2007).
# Assays:
# Assay type in all cases: functional
# Mythimna separata [1] = test: Insecticidal activity against Mythimna separata at 50 mg/kg
# Mythimna separata [2] = test: Insecticidal activity against Mythimna separata at 25 mg/kg
# Mythimna separata [3] = test: Insecticidal activity against Mythimna separata at 200 mg/kg
# Mythimna separata [4] = test: Insecticidal activity against Mythimna separata at 500 mg/kg
# Mythimna separata [5] = test: Insecticidal activity against Mythimna separata at 10 mg/kg
# Nephotettix cincticeps = test: Insecticidal activity against Nephotettix cincticeps at 500 mg/kg
# Mythimna separata [6] = test: Insecticidal activity against Mythimna separata at 100 mg/kg
# Tetranychus urticae [7] = test: Acarcidal activity against Tetranychus urticae larvae at 200 mg/kg
# Tetranychus urticae [8] = test: Acarcidal activity against Tetranychus urticae eggs at 200 mg/kg
Compound,Activity (Mythimna separata [1]) [%],Activity (Mythimna separata [2]) [%],Activity (Mythimna separata [3]) [%],Activity (Mythimna separata [4]) [%],Activity (Mythimna separata [5]) [%],Activity (Nephotettix cincticeps) [%],Activity (Mythimna separata [6]) [%],Activity (Tetranychus urticae [7]) [%],Activity (Tetranychus urticae [8]) [%]
Cc1ccc(Oc2c(/C=N\OCc3ccc(NC(=O)NC(=O)c4c(F)cccc4F)cc3)c(C)nn2C)cc1C,0,0,0,60,0,24.3,0,,
Cc1nn(-c2ccccc2)c(Cl)c1/C=N\OCc1ccc(NC(=O)NC(=O)c2c(F)cccc2F)cc1,0,0,40,100,0,62.5,0,,
Cc1ccc(Oc2c(/C=N\OCc3ccc(NC(=O)NC(=O)c4c(F)cccc4F)cc3)c(C)nn2C)cc1,0,0,0,30,0,50,0,,
C/C(=N/OCc1ccc(NC(=O)NC(=O)c2c(F)cccc2F)cc1)n1cncn1,50,0,100,100,0,19.2,100,10,12
Cc1cc(C)cc(Oc2c(/C=N\OCc3ccc(NC(=O)NC(=O)c4c(F)cccc4F)cc3)c(C)nn2C)c1,0,0,100,100,0,69.7,50,,
CCCS/C(C)=N\OCc1ccc(NC(=O)NC(=O)c2c(F)cccc2F)cc1,,10,15,75,0,,10,,
N#C/C(=N/OCc1ccc(NC(=O)NC(=O)c2c(F)cccc2F)cc1)c1ccccc1,0,0,0,25,0,50,0,,
CC(C)(C)c1ccc(/C=N\OCc2ccc(NC(=O)NC(=O)c3c(F)cccc3F)cc2)cc1,,,0,30,,18.2,,,
C/C(=N/OCc1ccc(NC(=O)NC(=O)c2c(F)cccc2F)cc1)c1ccc2c(c1)OCO2,90,70,100,100,15,,100,7,10
CCS/C(=N/OCc1ccc(NC(=O)NC(=O)c2c(F)cccc2F)cc1)C(C)C,,0,100,100,0,41,50,43,76
O=C(NC(=O)c1c(F)cccc1F)Nc1ccc(CO/N=C(/c2ccc(Cl)cc2)C2CC2)cc1 [FLUCYCLOXURON],,100,,,100,42.8,,100,100
CC(C)Oc1ccc(/C=N\OCc2ccc(NC(=O)NC(=O)c3c(F)cccc3F)cc2)cc1,,,,0,,,,,
O=C(NC(=O)c1c(F)cccc1F)Nc1ccc(CO/N=C\c2ccc3c(c2)OCO3)cc1,100,100,100,100,50,33.3,100,10,11
O=C(NC(=O)c1c(F)cccc1F)Nc1ccc(CO/N=C\OCc2ccccc2)cc1,,,0,30,,45.7,,,
CCCCS/C(=N/OCc1ccc(NC(=O)NC(=O)c2c(F)cccc2F)cc1)c1ccc(C(C)(C)C)cc1,25,0,65,80,0,56.3,40,,
